Measurements reported in US20080096894A1, “Anti-Bacterial Compounds” (ASTON UNIVERSITY, priority 2005, published 2008).
≈ marks a conversion by molar mass, not a printed value. Read-outs that look alike come from different tables or passages of the source.

Columns and labels:
[1] = tested on: human mononuclear leucocytes (MNL, white blood cells); experiment: direct leucocyte toxicity, tryptan blue exclusion, 18 hours; format: cell-based
Description: The in vitro assay used human mononuclear leucocytes (MNL, white blood cells) which were incubated with the test compound for 18 hours and cell death determined by tryptan blue exclusion (tryptan blue is a dye, which stains dead cells, whilst living cells extrude it).
The toxicity of 4PYcq and the aldehyde cq and pyridine-4-carboxamidrazone precursors were assessed using the same in vitro assay with human mononuclear leucocytes as that described above. The toxicity of related compounds, 2-hydroxybenzylidene-pyridine-2-carboxamidrazone 4PYbw and benzylidenepyridine-2-carboxamidrazone 4PYaa were also examined.

MRSA = experiment: MIC, agar dilution, multipoint inoculator; format: cell-based, methicillin-resistant Staphylococcus aureus
Description: (§1) This activity was measured using a multipoint inoculator method as follows. The MIC for each compound was measured using an agar dilution method (Onda, H., et al., Int. J. Antimicrob. Agents. 18, 263 (2001)) (Mueller Hinton agar) by means of a multipoint inoculator delivering 10^4 colony forming units per spot.
‘Staph’ refers to the reference strain of S. aureus (NCTC 6571). A tick in the MRSA column refers to a positive zone against MRSA strain 96-7474, and the MIC range (in μg/ml) which follows is that found against a panel of ten MRSA strains. Where MIC values are given for MRSA, these are stated as a range of values, as testing was carried out on a panel of clinical isolates.

E. faecium = experiment: MIC, agar dilution, multipoint inoculator; format: cell-based, Enterococcus faecium; conditions: upper value of MIC reading
Description: as §1

E. faecalis = experiment: MIC, agar dilution, multipoint inoculator; format: cell-based; conditions: upper value of MIC reading
Description: as §1

S. aboni = experiment: MIC, agar dilution, multipoint inoculator; format: cell-based; conditions: S. aboni NCTC 6017; upper value of MIC reading
Description: as §1

S. aureus = experiment: MIC, agar dilution, multipoint inoculator; format: cell-based, Staphylococcus aureus; conditions: upper value of MIC reading
Description: as §1

S. epidemisis = experiment: MIC, agar dilution, multipoint inoculator; format: cell-based, Staphylococcus epidermidis; conditions: upper value of MIC reading
Description: as §1

S. haemolyticus = experiment: MIC, agar dilution, multipoint inoculator; format: cell-based; conditions: S. haemolyticus Isolate 1, upper value of MIC reading
Description: as §1

[2] = Staphylococcus aureus, MRSA, 18 h, panel of ten MRSA strains (clinical isolates), read-out: MRSA MIC range
[3] = MRSA Isolate 1, upper value of MIC reading, in µg/mL
[4] = MRSA Isolate 2, upper value of MIC reading, in µg/mL
[5] = MRSA Isolate 3, upper value of MIC reading, in µg/mL
[6] = MRSA Isolate 4, upper value of MIC reading, in µg/mL
[7] = MRSA Isolate 5, upper value of MIC reading, in µg/mL
[8] = MRSA Isolate 6, upper value of MIC reading, in µg/mL
[9] = MRSA Isolate 7, upper value of MIC reading, in µg/mL
[10] = MRSA Isolate 8, upper value of MIC reading, in µg/mL
[11] = MRSA Isolate 9, upper value of MIC reading, in µg/mL
[12] = MRSA Isolate 10, upper value of MIC reading, in µg/mL
[13] = panel of ten MRSA strains (clinical isolates)

N/N=C(\N)c1ccccn1 [Compound 2PY, Pyridine-2-carboxamidrazone]
direct MNL toxicity (in words) [1]: most toxic | % Leucocyte Death ([1]; human, 18 h, 1 mM): 12.1 ± 2.2%

CC(C)(C)c1ccc(/C=N/N=C(\N)c2ccccn2)cc1 [Compound 2PYae]
direct MNL toxicity (in words) [1]: indistinguishable from the background levels | % Leucocyte Death ([1]; human, 18 h, 0.1 mM): 1.1 ± 1.0%

CCC(C)(C)c1ccc(/C=N/N=C(\N)c2ccccn2)cc1 [Compound 2PYaf]
direct MNL toxicity (in words) [1]: indistinguishable from the background levels | % Leucocyte Death ([1]; human, 18 h, 1 mM): 3.1 ± 1.0% | MIC (MRSA; [2]): > 256 µg/mL

N/C(=N\N=C\c1ccccc1OCc1ccccc1)c1ccccn1 [Compound 2PYbe]
direct MNL toxicity (in words) [1]: indistinguishable from the background levels | % Leucocyte Death ([1]; human, 18 h, 0.1 mM): 5.1 ± 4.1%

N/C(=N\N=C\c1ccccc1Sc1ccc(Cl)cc1)c1ccccn1 [Compound 2PYeh]
direct MNL toxicity (in words) [1]: indistinguishable from the background levels | % Leucocyte Death ([1]; human, 18 h, 0.1 mM): 3.7 ± 2.6%

NC(=NN=Cc1cc(O)c(O)cc1O)c1cccnc1 [Compound 3PYcc]
MIC (E. faecium; E. faecium NCTC 7171): 256 µg/mL (≈ 940 µM) | MIC (E. faecalis; E. faecalis Isolate 1): 256 µg/mL (≈ 940 µM) | MIC (E. faecalis; E. faecalis Isolate 2): 256 µg/mL (≈ 940 µM) | MIC (E. faecalis; E. faecalis Isolate 4): 256 µg/mL (≈ 940 µM) | MIC (E. faecalis; E. faecalis Isolate 5): 128 µg/mL (≈ 470 µM) | MIC (E. faecalis; E. faecalis NCTC 5957): 256 µg/mL (≈ 940 µM) | MIC (S. aboni): 256 µg/mL (≈ 940 µM) | MIC (S. aureus; S. aureus Cowan 1): 256 µg/mL (≈ 940 µM) | MIC (S. aureus; S. aureus NCTC 6571): 256 µg/mL (≈ 940 µM) | MIC (S. aureus; S. aureus NCTC 10788): 256 µg/mL (≈ 940 µM) | MIC (S. epidemisis; S. epidemisis NCTC 11047): 32 µg/mL (≈ 118 µM) | MIC (MRSA; [3]): 256 | MIC (MRSA; [4]): 256 | MIC (MRSA; [5]): 256 | MIC (MRSA; [6]): 256 | MIC (MRSA; [7]): 256 | MIC (MRSA; [8]): 256 | MIC (MRSA; [9]): 256 | MIC (MRSA; [10]): 256 | MIC (MRSA; [11]): 256 | MIC (MRSA; [12]): 256 | MRSA MIC range (MRSA; [13]): 128 to 256 µg/mL

NC(=NN=Cc1cc([N+](=O)[O-])ccc1O)c1cccnc1 [Compound 3PYcj]
MIC (E. faecalis; E. faecalis Isolate 1): 128 µg/mL (≈ 449 µM) | MIC (E. faecalis; E. faecalis Isolate 2): 128 µg/mL (≈ 449 µM) | MIC (E. faecalis; E. faecalis NCTC 5957): 256 µg/mL (≈ 897 µM) | MIC (S. aboni): 256 µg/mL (≈ 897 µM) | MIC (S. aureus; S. aureus Cowan 1): 16 µg/mL (≈ 56.1 µM) | MIC (S. aureus; S. aureus NCTC 6571): 8 µg/mL (≈ 28 µM) | MIC (S. aureus; S. aureus NCTC 10788): 8 µg/mL (≈ 28 µM) | MIC (S. epidemisis; S. epidemisis Isolate 1): 128 µg/mL (≈ 449 µM) | MIC (S. epidemisis; S. epidemisis NCTC 11047): 64 µg/mL (≈ 224 µM) | MIC (MRSA; [3]): 4 | MIC (MRSA; [4]): 4 | MIC (MRSA; [5]): 4 | MIC (MRSA; [6]): 4 | MIC (MRSA; [7]): 4 | MIC (MRSA; [8]): 8 | MIC (MRSA; [9]): 8 | MIC (MRSA; [10]): 8 | MIC (MRSA; [11]): 8 | MIC (MRSA; [12]): 8 | MRSA MIC range (MRSA; [13]): 2 to 8 µg/mL

NC(=NN=Cc1cc(Br)cc([N+](=O)[O-])c1O)c1cccnc1 [Compound 3PYcl]
MIC (E. faecium; E. faecium ACTCC 10541): 128 µg/mL (≈ 351 µM) | MIC (E. faecium; E. faecium NCTC 7171): 256 µg/mL (≈ 703 µM) | MIC (E. faecalis; E. faecalis EBH1): 256 µg/mL (≈ 703 µM) | MIC (E. faecalis; E. faecalis Isolate 1): 128 µg/mL (≈ 351 µM) | MIC (E. faecalis; E. faecalis Isolate 2): 128 µg/mL (≈ 351 µM) | MIC (E. faecalis; E. faecalis Isolate 4): 256 µg/mL (≈ 703 µM) | MIC (E. faecalis; E. faecalis Isolate 5): 128 µg/mL (≈ 351 µM) | MIC (E. faecalis; E. faecalis NCTC 5957): 128 µg/mL (≈ 351 µM) | MIC (S. aboni): 256 µg/mL (≈ 703 µM) | MIC (S. haemolyticus): 128 µg/mL (≈ 351 µM) | MIC (S. aureus; S. aureus Cowan 1): 64 µg/mL (≈ 176 µM) | MIC (S. aureus; S. aureus NCTC 6571): 32 µg/mL (≈ 87.9 µM) | MIC (S. aureus; S. aureus NCTC 10788): 32 µg/mL (≈ 87.9 µM) | MIC (S. epidemisis; S. epidemisis Isolate 1): 256 µg/mL (≈ 703 µM) | MIC (S. epidemisis; S. epidemisis NCTC 11047): 256 µg/mL (≈ 703 µM) | MIC (MRSA; [3]): 64 | MIC (MRSA; [4]): 64 | MIC (MRSA; [5]): 64 | MIC (MRSA; [6]): 32 | MIC (MRSA; [7]): 32 | MIC (MRSA; [8]): 64 | MIC (MRSA; [9]): 64 | MIC (MRSA; [10]): 64 | MIC (MRSA; [11]): 64 | MIC (MRSA; [12]): 64 | MRSA MIC range (MRSA; [13]): 16 to 64 µg/mL

N=C(NN=Cc1ccccc1)c1ccccn1 [Compound 4PYaa, benzylidenepyridine-2-carboxamidrazone]
direct MNL toxicity (in words) [1]: only mildly toxic in comparison

CCC(C)(C)c1ccc(/C=N/N=C(\N)c2ccncc2)cc1 [Compound 4PYaf, N^1-[4-(1,1-dimethylpropyl)benzylidene]-pyridine-4-carboxamidrazone]
MIC (E. faecium; Enterococcus faecium, 18 h, E. faecium ACTCC 10541, read-out: MIC): 64 µg/mL (≈ 217 µM) | MIC (E. faecium; Enterococcus faecium, NCTC7171, 18 h, E. faecium NCTC 7171, read-out: MIC): 64 µg/mL (≈ 217 µM) | MIC (E. faecalis; Enterococcus faecalis, 18 h, E. faecalis EBH1, read-out: MIC): 64 µg/mL (≈ 217 µM) | MIC (E. faecalis; Enterococcus faecalis, 18 h, E. faecalis Isolate 1, read-out: MIC): 64 µg/mL (≈ 217 µM) | MIC (E. faecalis; Enterococcus faecalis, 18 h, E. faecalis Isolate 2, read-out: MIC): 64 µg/mL (≈ 217 µM) | MIC (E. faecalis; Enterococcus faecalis, 18 h, E. faecalis Isolate 3, read-out: MIC): 64 µg/mL (≈ 217 µM) | MIC (E. faecalis; Enterococcus faecalis, 18 h, E. faecalis Isolate 4, read-out: MIC): 128 µg/mL (≈ 435 µM) | MIC (E. faecalis; Enterococcus faecalis, 18 h, E. faecalis Isolate 5, read-out: MIC): 128 µg/mL (≈ 435 µM) | MIC (E. faecalis; Enterococcus faecalis, NCTC5957, 18 h, E. faecalis NCTC 5957, read-out: MIC): 64 µg/mL (≈ 217 µM) | MIC (S. haemolyticus; Staphylococcus haemolyticus, 18 h, read-out: MIC): 64 µg/mL (≈ 217 µM) | MIC (S. aureus; Staphylococcus aureus, 18 h, S. aureus Cowan 1, read-out: MIC): 64 µg/mL (≈ 217 µM) | MIC (S. aureus; Staphylococcus aureus, NCTC6571, 18 h, S. aureus NCTC 6571, read-out: MIC): 64 µg/mL (≈ 217 µM) | MIC (S. aureus; Staphylococcus aureus, NCTC10788, 18 h, S. aureus NCTC 10788, read-out: MIC): 64 µg/mL (≈ 217 µM) | MIC (S. epidemisis; Staphylococcus epidermidis, 18 h, S. epidemisis Isolate 1, read-out: MIC): 64 µg/mL (≈ 217 µM) | MIC (S. epidemisis; Staphylococcus epidermidis, NCTC11047, 18 h, S. epidemisis NCTC 11047, read-out: MIC): 64 µg/mL (≈ 217 µM) | MIC (MRSA; Staphylococcus aureus, 18 h, MRSA Isolate 1, upper value of MIC reading, read-out: MIC): 64 µg/mL (≈ 217 µM) | MIC (MRSA; Staphylococcus aureus, 18 h, MRSA Isolate 2, upper value of MIC reading, read-out: MIC): 64 µg/mL (≈ 217 µM) | MIC (MRSA; Staphylococcus aureus, 18 h, MRSA Isolate 3, upper value of MIC reading, read-out: MIC): 64 µg/mL (≈ 217 µM) | MIC (MRSA; Staphylococcus aureus, 18 h, MRSA Isolate 4, upper value of MIC reading, read-out: MIC): 64 µg/mL (≈ 217 µM) | MIC (MRSA; Staphylococcus aureus, 18 h, MRSA Isolate 5, upper value of MIC reading, read-out: MIC): 64 µg/mL (≈ 217 µM) | MIC (MRSA; Staphylococcus aureus, 18 h, MRSA Isolate 6, upper value of MIC reading, read-out: MIC): 64 µg/mL (≈ 217 µM) | MIC (MRSA; Staphylococcus aureus, 18 h, MRSA Isolate 7, upper value of MIC reading, read-out: MIC): 64 µg/mL (≈ 217 µM) | MIC (MRSA; Staphylococcus aureus, 18 h, MRSA Isolate 8, upper value of MIC reading, read-out: MIC): 64 µg/mL (≈ 217 µM) | MIC (MRSA; Staphylococcus aureus, 18 h, MRSA Isolate 9, upper value of MIC reading, read-out: MIC): 64 µg/mL (≈ 217 µM) | MIC (MRSA; Staphylococcus aureus, 18 h, MRSA Isolate 10, upper value of MIC reading, read-out: MIC): 64 µg/mL (≈ 217 µM) | MIC (MRSA; [2]): 32 to 64 µg/mL (≈ 109 to 217 µM)

N=C(NN=Cc1ccccc1O)c1ccccn1 [Compound 4PYbw, 2-hydroxybenzylidene-pyridine-2-carboxamidrazone]
direct MNL toxicity (in words) [1]: only mildly toxic in comparison

CC(C)(C)c1ccc(C=O)cc1 [ae]
direct MNL toxicity (in words) [1]: most toxic | % Leucocyte Death ([1]; human, 18 h, 1 mM): 24.1 ± 9.6%

CCC(C)(C)c1ccc(C=O)cc1 [af]
% Leucocyte Death ([1]; human, 18 h, 1 mM): 5.5 ± 3.0%

O=Cc1cccc2ccccc12 [al]
% Leucocyte Death ([1]; 1.0 mM, 18 hours): 9.2 ± 4.7%
